In patent US20130109682A1, “CYCLIC ETHER COMPOUNDS USEFUL AS KINASE INHIBITORS” (NOVARTIS AG, priority 2010, published 2013):

Key:
[1] = tested on: KMS11 (human myeloma cell line); assay: Cell proliferation assay (CellTiter-Glo), KMS11; assay type: cell-based; settings: Homo sapiens, KMS-11; KMS11-Luc cells
In short: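 EC50 derived from CellTiter-Glo luminescence after 3-day exposure at 37° C. Compound was diluted to 2× in medium and added to an equal volume of cells. KMS11 myeloma cells were plated on assay day at 2000/well in IMDM with 10% FBS and sodium pyruvate.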

PIM3 = PIM3 (Homo sapiens, UniProt Q86V86); assay: KinaseGlo Pim3 ATP depletion assay; assay type: biochemical
In short: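 Residual ATP was detected by luciferase luminescence once about half had been consumed. The reaction contained 5 nM enzyme, 100 μM BAD peptide (RSRHSSYPAGT) and 40 μM ATP in 50 mM HEPES pH 7.5, 5 mM MgCl2, 1 mM DTT and 0.05% BSA with 2.5% DMSO. Compound and enzyme/peptide were premixed 15 min before ATP.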

hERG = target: T1, hERG (Homo sapiens, UniProt Q12809); assay: hERG binding assay ([3H] dofetilide displacement); settings: dofetilide displacement; read-out: HERGdof IC50
T1 construct: host or cells: crude membrane suspension
Protocol: Compounds of the invention were pipetted into each well of pre-wet 96-well Millipore GF/C filter plates (#MSFCN6B50): 119 μl assay buffer, 1 μl test compound in 100% DMSO (or 100% DMSO only for total binding), 40 μl [3H] dofetilide (12.5 nM, final concentration 2.5 nM; Novartis radioisotope laboratory, East Hanover, N.J., USA, specific activity 15-45 Ci/mmol); 40 μl crude membrane suspension (ca. 15 μg protein). The final concentration of DMSO during the incubation was 0.5%. Incubations were performed at room temperature for 90 min. Non-specific binding (NSB) was defined as the binding remaining in the presence of 25 μM terfenadine (Sigma T9652). The incubations were terminated by rapid filtration on a Millipore filtration manifold, followed by three washes of 200 μA ice-cold assay buffer. The plates were left to dry overnight before adding 40 μA scintillant (MicroScint-20). The plates were then sealed (Sealing Tape SI, Nunc 236366) and read in a Wallac MicroBeta Trilux beta-counter for 1.5 min per well. Compounds were tested as 9-concentration response curves in duplicate, ranging from 30 μM to 3 nM in 1:3 dilution steps. Dilution curves were prepared in 100% DMSO. The reference compound (terfenadine) was tested as an eight-concentration response curve, ranging from 10 μM to 0.6 nM in 1:4 dilution steps.

GSK3β = GSK3β (Homo sapiens, UniProt P49841); assay: GSK3β ATP depletion assay; assay type: biochemical; settings: read-out: GSK3b IC50
In short: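 Kinase activity is read as ATP consumption: luciferase luminescence reports the ATP remaining once roughly half of the 2 μM ATP is used. Reaction mix: 5 nM GSK3β, 10 μM b-CREB peptide, 50 mM Tris pH 7.5, 15 mM MgCl2, 1 mM DTT, 0.1% BSA, 2.5% DMSO. Enzyme and peptide are preincubated 15 min before ATP is added.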

PIM1 = PIM1 (Homo sapiens, UniProt P11309); assay: KinaseGlo Pim1 ATP depletion assay; assay type: biochemical
In short: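 IC50 is derived from residual ATP measured by KinaseGlo Plus luminescence once about half the ATP was consumed. Final conditions were 20 μM ATP, 40 μM BAD peptide and 2.5 nM kinase in HEPES pH 7.5 buffer with MgCl2, DTT and BSA, plus 2.5% DMSO. Compound and enzyme were premixed 15 min before ATP addition.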

PIM2 = PIM2 (Homo sapiens, UniProt Q9P1W9); assay: KinaseGlo Pim2 ATP depletion assay; assay type: biochemical
In short: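 Compound sat 15 min with enzyme and BAD peptide before ATP was added; final levels 5 nM PIM2, 10 μM peptide, 4 μM ATP, 2.5% DMSO, pH 7.5 HEPES buffer with MgCl2, DTT, BSA. Stopped near 50% ATP consumption; remaining ATP measured by luciferase luminescence.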

T1 sequence (Q12809 whole entry): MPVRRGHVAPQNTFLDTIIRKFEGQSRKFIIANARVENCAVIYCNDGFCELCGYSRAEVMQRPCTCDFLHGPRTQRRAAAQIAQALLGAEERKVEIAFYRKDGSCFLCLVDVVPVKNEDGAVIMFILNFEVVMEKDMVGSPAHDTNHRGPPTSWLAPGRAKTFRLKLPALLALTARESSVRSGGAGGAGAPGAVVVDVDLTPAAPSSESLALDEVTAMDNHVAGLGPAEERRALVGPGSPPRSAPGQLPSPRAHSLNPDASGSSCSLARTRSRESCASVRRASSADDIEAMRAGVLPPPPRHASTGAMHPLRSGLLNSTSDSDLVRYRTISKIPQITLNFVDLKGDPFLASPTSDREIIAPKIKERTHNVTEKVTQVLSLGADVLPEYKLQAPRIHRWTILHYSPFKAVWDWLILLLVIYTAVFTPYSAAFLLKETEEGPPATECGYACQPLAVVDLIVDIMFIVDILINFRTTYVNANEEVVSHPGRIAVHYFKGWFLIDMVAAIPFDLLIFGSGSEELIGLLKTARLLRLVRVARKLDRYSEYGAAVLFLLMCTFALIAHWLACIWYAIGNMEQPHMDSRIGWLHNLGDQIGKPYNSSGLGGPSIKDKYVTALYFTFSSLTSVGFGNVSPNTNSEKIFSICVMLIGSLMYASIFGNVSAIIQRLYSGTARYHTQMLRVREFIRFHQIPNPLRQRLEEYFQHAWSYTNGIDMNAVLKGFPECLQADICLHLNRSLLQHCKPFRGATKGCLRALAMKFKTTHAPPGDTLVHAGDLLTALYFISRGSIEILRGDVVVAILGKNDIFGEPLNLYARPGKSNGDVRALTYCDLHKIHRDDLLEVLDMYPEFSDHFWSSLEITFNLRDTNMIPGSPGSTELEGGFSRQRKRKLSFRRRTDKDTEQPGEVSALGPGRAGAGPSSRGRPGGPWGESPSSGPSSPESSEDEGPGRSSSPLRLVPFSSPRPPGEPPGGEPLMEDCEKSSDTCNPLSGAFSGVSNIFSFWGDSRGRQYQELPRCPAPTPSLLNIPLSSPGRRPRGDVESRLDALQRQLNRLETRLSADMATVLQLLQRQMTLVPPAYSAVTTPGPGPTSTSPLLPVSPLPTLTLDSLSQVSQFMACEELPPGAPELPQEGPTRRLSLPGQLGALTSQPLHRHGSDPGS
Sequence of PIM2 (Q9P1W9 whole entry): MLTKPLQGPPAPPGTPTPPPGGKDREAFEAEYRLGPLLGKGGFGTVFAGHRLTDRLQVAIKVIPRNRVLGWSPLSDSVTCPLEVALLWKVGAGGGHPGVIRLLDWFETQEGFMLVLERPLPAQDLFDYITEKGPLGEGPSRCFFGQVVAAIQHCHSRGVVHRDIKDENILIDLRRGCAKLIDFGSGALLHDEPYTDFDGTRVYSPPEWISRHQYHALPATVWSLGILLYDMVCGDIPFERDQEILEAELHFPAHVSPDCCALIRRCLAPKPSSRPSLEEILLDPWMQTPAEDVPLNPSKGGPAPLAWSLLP
Sequence of GSK3β (P49841 whole entry, species assumed): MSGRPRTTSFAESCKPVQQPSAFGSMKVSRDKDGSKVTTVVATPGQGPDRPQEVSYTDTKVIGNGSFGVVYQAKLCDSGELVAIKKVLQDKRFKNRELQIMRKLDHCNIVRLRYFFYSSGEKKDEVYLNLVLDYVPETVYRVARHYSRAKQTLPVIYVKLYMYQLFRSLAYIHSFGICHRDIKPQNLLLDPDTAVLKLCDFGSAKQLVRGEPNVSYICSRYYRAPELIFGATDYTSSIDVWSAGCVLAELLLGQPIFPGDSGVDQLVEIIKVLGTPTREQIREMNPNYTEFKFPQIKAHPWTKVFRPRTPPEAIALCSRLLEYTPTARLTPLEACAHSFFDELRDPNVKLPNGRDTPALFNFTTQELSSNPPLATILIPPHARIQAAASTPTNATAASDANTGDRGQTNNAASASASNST
Sequence of PIM1 (P11309 whole entry): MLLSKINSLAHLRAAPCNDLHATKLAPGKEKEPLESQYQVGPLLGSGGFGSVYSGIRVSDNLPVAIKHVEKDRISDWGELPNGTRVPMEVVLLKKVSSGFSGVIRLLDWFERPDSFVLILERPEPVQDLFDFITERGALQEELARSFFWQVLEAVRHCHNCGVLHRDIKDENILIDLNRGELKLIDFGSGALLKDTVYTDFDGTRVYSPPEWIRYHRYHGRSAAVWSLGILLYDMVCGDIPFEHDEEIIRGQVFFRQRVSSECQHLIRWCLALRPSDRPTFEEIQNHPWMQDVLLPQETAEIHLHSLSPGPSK

| Compound | EC50 [1] | IC50 (PIM3) | IC50 (GSK3β) | IC50 (PIM1) | IC50 (PIM2) | IC50 (hERG) |
| --- | --- | --- | --- | --- | --- | --- |
| CC(C)NC(=O)c1ccc(F)c(-c2ccc(N)c(C(=O)Nc3cnccc3[C@@H]3C[C@@H](O)[C@](C)(O)[C@@H](C)O3)n2)c1F [Example 98, 3-amino-6-(2,6-difluoro-3-(isopropylcarbamoyl)phenyl)-N-(4-((2S,4R,5S,6R)-4,5-dihydroxy-5,6-dimethyltetrahydro-2H-pyran-2-yl)pyridin-3-yl)picolinamide] | 500 nM | 3 nM | 916 nM | 2 nM | 2 nM | > 30000 nM |
| CC(C)NC(=O)c1ccc(F)c(-c2ccc(N)c(C(=O)Nc3cnccc3[C@H]3C[C@@H](O)[C@](C)(O)[C@@H](C)O3)n2)c1 [Example 104, 3-amino-N-(4-((2R,4R,5S,6R)-4,5-dihydroxy-5,6-dimethyltetrahydro-2H-pyran-2-yl)pyridin-3-yl)-6-(2-fluoro-5-(isopropylcarbamoyl)phenyl)picolinamide] | 2300 nM | 2 nM | 979 nM | 2 nM | 3 nM | > 30000 nM |
| C[C@@H]1C[C@H](N)C[C@H](c2ccncc2NC(=O)c2csc(-c3c(F)cccc3F)n2)O1 [Example 121, N-(4-((2R,4S,6R)-4-amino-6-methyltetrahydro-2H-pyran-2-yl)pyridin-3-yl)-2-(2,6-difluorophenyl)thiazole-4-carboxamide] | 4700 nM | 44 nM | 3230 nM | 9 nM | 795 nM | 10000 nM |
| O=C(Nc1cnccc1[C@H]1C[C@@H](O)CCO1)c1ccc(F)c(-c2c(F)cccc2F)n1 [Example 129, 6-(2,6-difluorophenyl)-5-fluoro-N-(4-((2R,4S)-4-hydroxytetrahydro-2H-pyran-2-yl)pyridin-3-yl)picolinamide] | > 10000 nM | 13 nM | 361 nM | 2 nM | 147 nM | > 30000 nM |

Further lines, with some results ahead:

| EC50 [1] | IC50 (PIM3) | IC50 (GSK3β) | IC50 (PIM1) | IC50 (PIM2) | Compound | IC50 (hERG) |
| --- | --- | --- | --- | --- | --- | --- |
| 1300 nM | 2 nM | 225 nM | 1 nM | 5 nM | C[C@@H]1O[C@H](c2ccncc2NC(=O)c2ccc(F)c(-c3c(F)cccc3F)n2)C[C@H](N)[C@H]1O [Example 115, N-(4-((2S,4S,5R,6S)-4-amino-5-hydroxy-6-methyltetrahydro-2H-pyran-2-yl)pyridin-3-yl)-6-(2,6-difluorophenyl)-5-fluoropicolinamide] | 22000 nM |
| 4700 nM | 10 nM | 12300 nM | 2 nM | 45 nM | C[C@@H]1C[C@H](N)C[C@H](c2ccncc2NC(=O)c2ccc(F)c(-c3c(F)cccc3F)n2)O1 [Example 122, N-(4-((2R,4S,6R)-4-amino-6-methyltetrahydro-2H-pyran-2-yl)pyridin-3-yl)-6-(2,6-difluorophenyl)-5-fluoropicolinamide] | 2000 nM |
| 4200 nM | 7 nM | 421 nM | 1 nM | 44 nM | C[C@H]1C[C@@H](N)C[C@@H](c2ccncc2NC(=O)c2csc(-c3c(F)cccc3F)n2)O1 [Example 123, N-(4-((2S,4R,6S)-4-amino-6-methyltetrahydro-2H-pyran-2-yl)pyridin-3-yl)-2-(2,6-difluorophenyl)thiazole-4-carboxamide] | 12000 nM |
| 1600 nM | 2 nM | 3400 nM | 1 nM | 5 nM | C[C@H]1C[C@@H](N)C[C@@H](c2ccncc2NC(=O)c2ccc(F)c(-c3c(F)cccc3F)n2)O1 [Example 124, N-(4-((2S,4R,6S)-4-amino-6-methyltetrahydro-2H-pyran-2-yl)pyridin-3-yl)-6-(2,6-difluorophenyl)-5-fluoropicolinamide] | 3000 nM |
